Reference: patent publication US20140228398A1, “COMBINATIONS OF ALPHA 7 NICOTINIC ACETYLCHOLINE RECEPTOR ACTIVATORS AND mGluR5 ANTAGONISTS FOR USE IN DOPAMINE INDUCED [sequence] IN PARKINSON'S DISEASE” (NOVARTIS AG, priority 2011, published 2014)

Experiments:
[1] = Oral bioavailability and brain penetration in mice; type: in vivo; details: 30 μmol/kg p.o., ± SD
Method: […] Male mice (30-35g, OF1/ICstrain) were sacrificed at indicated time points after oral administration. Trunk-blood was collected in EDTA-containing tubes and the brain was removed and immediately frozen on dry ice. To 100 μl plasma 10 μl internal standard (1.0 pmol of a compound with solubility and ionization properties similar to test compounds) was added and extracted three times with 500 μl dichloromethane. The combined extracts were then dried under a stream of nitrogen and re-dissolved in 100 μl acetonitrile/water (70% acetonitrile). Brains were weighed and homogenized in water (1:5 w/v). Two 100 μl aliquots of each homogenate+10 μl of internal standard (same standard as used for the plasma samples) were extracted three times with 500 μl dichloromethane and further processed as the plasma samples. Samples were separated on Beckmann high-performance liquid chromatography equipment system with an autosampler (Gilson 233XL).
The limit of detection (LOD), defined as the lowest concentration of the extracted standard sample with a signal to noise ratio of ˜3.

parkinsonian primates [2] = details: data published in WO2009047296 and Gregoire et al 2011; cited from earlier work
parkinsonian primates [3] = assay: Movement disorder model: antidyskinetic effect in parkinsonian (MPTP) primates; type: in vivo, cynomolgus monkeys (Macaca fascicularis); details: for locomotor response / mean parkinsonian score: parkinsonian primates; for mean parkinsonian score: reduced from 9.4
Method: Female ovariectomized cynomolgus monkeys (Macaca fascicularis) are used in the assessment. The animals can be rendered parkinsonian by continuous infusion of 1-methyl-4-phenyl-1,2,3,6-tetrahydropyridine (MPTP) until they develop a stable parkinsonian syndrome. After recuperation, animals are treated daily with levodopa until clear and reproducible dyskinesias are developed.
Monkeys are observed through a one-way screen window in their home cage. They are observed and scored repeatedly at baseline and after a standard s.c. dose of levodopa. Locomotor activity is assessed and followed with an electronic monitoring system. Antiparkinsonian responses are evaluated by measuring the locomotor activity and a Parkinson disability scale (see Hadj Tahar A et al, Clin Neuropharmacol 2000; 23:195-202; and Samadi P et al, Neuropharmacology 2003; 45:954-963). Dyskinesias are closely monitored and scored according to a dyskinesia rating scale (also described in Hadj Tahar A et al; and Samadi P et al) every 15 minutes until the end of the effect. The doses of levodopa are chosen to induce motor activation and reproducible dyskinesia but no excessive agitation.
Monkeys are observed for at least two hours following an oral administration of vehicle. On a subsequent day, the dose of levodopa selected is tested once. The animals are observed (with measures of parkinsonian and dyskinetic scores) for the entire duration of the levodopa effect and are also monitored for locomotor activity. This provides vehicle control values as well as levodopa antiparkinsonian and dyskinesia response data for comparison with combinations of a α7-nAChR agonist/positive allosteric modulator and levodopa. The monkeys are then tested with a α7-nAChR agonist/positive allosteric modulator in combination with a fixed dose of levodopa. A suspension for oral administration of the α7-nAChR agonist/positive allosteric modulator is administered before levodopa. After each dose, the animals are observed (with measures of parkinsonian and dyskinetic scores) for the entire duration of effect and monitored for locomotor activity or any change in behavior (e.g. circling, excitement, lethargy and sleepiness).
Using this protocol, compound A-1 at a dose of 20 mg/kg was tested. Results based on five monkeys (levodopa/benserazide doses: 22.5/50 mg; 65/50 mg; 30/50 mg; 35/50 mg; and 25/50 mg) are shown in FIGS. 1-4.
For experiments shown in FIGS. 5 and 6 parkinsonian primates were treated orally with 10 mg/kg MPEP, 20 mg/kg JN403 and a combination of MPEP (10 mg/kg) and JN403 (20 mg/kg). In said experiments, compound MPEP increased the locomotor response from 230 count over 4 h to 810.

mice = assay: Social Recognition Test in mice; type: in vivo, mouse; details: oral, dose 3 mg/kg, familiar partner at 24 h vs time 0
Method: Social interactions between two experimental animals are influenced by their degree of familiarity: the better they know each other, the less time they spend on mutual scrutiny at each meeting. […] Memory enhancing agents (i.e. oxiracetam) facilitate learning to the extent that the previously met (familiar) partner is still remembered after 24 h, whereas in vehicle treated control animals the memory usually fades after less than 1 hour (Thor and Holloway, 1982) or after 2-3 hours.
Baseline-test: Pairs consisting of one adult and one young mouse were assigned at random to the experimental and control groups. In each pair only the adult mouse was orally treated 1 hour before the trial with either vehicle or the test compound. The duration of active contacts of the adult mouse with the young mouse was manually recorded over a period of 3 min, including the following behavioural, approach-related items: sniffing, nosing, grooming, licking, pawing and playing, anogenital exploration and orientation toward the young mouse; orientation, thereby, was defined as tip of nose of the adult mouse less than approximately 1 cm distant from the young mouse's body. […]

[4] = compound A-1 20 mg/kg oral with levodopa/benserazide, five monkeys

SMILES	Brain ([1]; 0.25 hour)	Brain ([1]; 0.5 hour)	Brain ([1]; 1 hour)	Brain ([1]; 2 hour)	Brain ([1]; 4 hour)	Brain ([1]; 8 hour)	Brain ([1]; 24 hour)	other results
C[C@H]1[C@H](Oc2ccc(-c3ccc4[nH]ccc4c3)nn2)C2CCN1CC2 [B-13, (2S,3R)-3-[6-(1H-indol-5-yl)-pyridazin-3-yloxy]-2-methyl-1-aza-bicyclo[2.2.2]octane]	1884 ± 291 pmol/g	2960 ± 706 pmol/g	2940 ± 335 pmol/g	1260 ± 172 pmol/g	379 ± 134 pmol/g	93 ± 30 pmol/g	13 ± 4 pmol/g	
Cc1cc(/C(=C/Nc2ccc(Cl)cc2)C(=O)Nc2ccc(Cl)cc2)on1 [E-1, (Z)—N-(4-Chloro-phenyl)-3-(4-chloro-phenylamino)-2-(3-methyl-isoxazol-5-yl)-acrylamide]								L-dopa induced dyskinesias (parkinsonian primates [2]): able to reduce L-dopa induced dyskinesias
C[C@H](OC(=O)N[C@@H]1CN2CCC1CC2)c1ccccc1F [A-1, (S)-(1-aza-bicyclo[2.2.2]oct-3-yl)-carbamic acid (S)-1-(2-fluoro-phenyl)-ethyl ester]		706.3 ± 153.4 pmol/g	573.7 ± 109.3 pmol/g	191.9 ± 34.9 pmol/g	104.6 ± 39.6 pmol/g		9.1 ± 2.7 pmol/g	antiparkinsonian activity of levodopa (antiparkinsonian score) (parkinsonian primates [3]; [4]): does not lower the antiparkinsonian activity of levodopa; onset of action of levodopa (Elapsed Time after Levodopa Administration) (parkinsonian primates [3]; [4]): does not delay the onset of action of levodopa; Duration of Levodopa-Response (parkinsonian primates [3]; compound A-1 20 mg/kg oral with levodopa/benserazide, five monkeys, extended from 230 minutes): 265 min; Mean Dyskinesia Score (total period) (parkinsonian primates [3]; compound A-1 20 mg/kg oral with levodopa/benserazide, five monkeys, reduced from 2.8): 2.1; locomotor response (parkinsonian primates [3]; oral 20 mg/kg JN403, baseline 230 count over 4 h): no effect; mean parkinsonian score (parkinsonian primates [3]; oral 20 mg/kg JN403): 9.0; Plasma ([1]; 0.5 hour): 634.9 ± 261.3 pmol/mL; Plasma ([1]; 1 hour): 684.7 ± 339.6 pmol/mL; Plasma ([1]; 2 hour): 168.2 ± 91.3 pmol/mL; Plasma ([1]; 4 hour): 85.0 ± 54.3 pmol/mL; Brain ([1]; 6 hour): 40.5 ± 12.1 pmol/g; Plasma ([1]; 6 hour): 29.5 ± 13.8 pmol/mL; Plasma ([1]; 24 hour): 3.8 ± 0.6 pmol/mL; Reduction in time scrutinizing in % ± SEM at 24 h (mice): 52 ± 4%
c1cc2cc(-c3cnc(O[C@H]4CCN5CCC[C@@H]4C5)nc3)ccc2[nH]1 [C-1, (4S,5R)-4-[5-(1H-indol-5-yl)-pyrimidin-2-yloxy]-1-aza-bicyclo[3.3.1]nonane]	620 ± 221 pmol/g	1405 ± 539 pmol/g	1458 ± 189 pmol/g	1478 ± 259 pmol/g	842 ± 187 pmol/g	362 ± 62 pmol/g		
Cc1cccc(C#Cc2ccccc2)n1 [F-2, 2-Methyl-6-phenylethynyl-pyridine, reference compound]								locomotor response (parkinsonian primates [3]; oral 10 mg/kg MPEP, increased from 230): 810 count over 4 h; mean parkinsonian score (parkinsonian primates [3]; oral 10 mg/kg MPEP): 8.2
